US20250127719A1, “ANISAMIDE-CONTAINING LIPIDS AND COMPOSITIONS AND METHODS OF USE THEREOF” (The Trustees Of The University Of Pennsylvania, priority 2021, published 2025)

Key:
[1] = system: activated 3T3-GFP fibroblasts; test: High-throughput screening of LNPs: GFP knockdown, plate reader; assay type: cell-based, murine; details: 50 nM siGFP, 48 h post-treatment
Method: High-throughput screening of LNPs was performed by evaluating GFP knockdown efficiency in 96-well plates using a plate reader assay. 3T3-GFP cells were re-suspended in DMEM containing 10 ng/ml of TGF-β, and seeded into a 96-well plate at a density of 5,000 cells per well. After 24 h, activated cells were treated with various LNPs loaded with siGFP (50 nM). At 48 h post-treatment, the GFP signal in each well was obtained using an Infinite M Plex plate reader (Tecan, Morrisville, NC, USA) with an excitation of 488 nm and an emission of 520 nm. Cell viability was measured using a CellTiter-Glo Luminescent Cell Viability Assay according to the manufacturer's instruction (G7572, Promega).

[2] = Gel retardation assay (agarose gel electrophoresis); assay type: physicochemical; details: weight ratio of AA-T3A-C12:siRNA above 5:1; 500 ng siRNA per lane
Method: FIGS. 11A-11B depict optimization of the weight ratio of AA-T3A-C12 to siRNA. FIG. 11A: gel retardation assay. LNPs with different weight ratios of AA-T3A-C12:siRNA were analyzed by 1% agarose gel electrophoresis. 500 ng siRNA was loaded into each lane. […] FIG. 11B: RiboGreen RNA assay. The siRNA encapsulation efficiency reached a plateau of ˜90% when the weight ratio of AA-T3A-C12:siRNA was 10:1. Data are presented as mean±SD (n=3).
(§1) The hydrodynamic diameter, polydispersity index (PDI), and zeta potential of LNPs were measured using a Zetasizer Nano ZS90 (Malvern Instruments, Malvern, UK). The morphology of LNPs was characterized by transmission electron microscopy (JEOL 1010, Tokyo, Japan). The siRNA-LNP complex was analyzed by agarose gel electrophoresis. siRNA encapsulation efficiency was determined using a modified Quant-iT RiboGreen RNA assay (Invitrogen) as previously described. The pKa of LNP was determined by 6-(p-toluidinyl)naphthalene-2-sulfonic acid (TNS) assay as previously described.

[3] = system: activated 3T3-GFP fibroblasts; test: Second-round screening: dependency on sigma receptor-mediated transfection (haloperidol pre-treatment); assay type: cell-based, murine; details: 30 μM haloperidol 2 h, then 50 nM siGFP LNP 48 h
Method: The top-performing LNPs were subjected to a second round of screening by evaluating their dependency on sigma receptor-mediated transfection. Activated 3T3-GFP cells were treated with or without haloperidol (30 μM) for 2 h before various LNPs loaded with siGFP (50 nM) were used to treat these cells for another 48 h. The GFP signal in each well was obtained as described above.

[4] = siRNA encapsulation efficiency, RiboGreen RNA assay; assay type: physicochemical; details: weight ratio of AA-T3A-C12:siRNA 10:1
Method: as §1

free siRNA in gel retardation assay [2]	siRNA encapsulation efficiency plateau [4]	SMILES	GFP knockdown [1]	change of GFP silencing activity after haloperidol (HP) treatment [3]
–	–	CCCCCCCCCCC(O)CN(CCN(CCNC(=O)c1ccc(OC)cc1)CCN(CC(O)CCCCCCCCCC)CC(O)CCCCCCCCCC)CC(O)CCCCCCCCCC (stereo not shown) [AA-110-C12]	~70%	–
Little to no free siRNA was observed	~90%	CCCCCCCCCCC(O)CN(CCCN(CCCNC(=O)c1ccc(OC)cc1)CCCN(CC(O)CCCCCCCCCC)CC(O)CCCCCCCCCC)CC(O)CCCCCCCCCC (stereo not shown) [AA-T3A-C12, N-(3-(bis(3-(bis(2-hydroxydodecyl)amino)propyl)amino)propyl)-4-methoxybenzamide]	–	the most significant loss of activity
